How the values were obtained:
[1] = target: 5-hydroxytryptamine receptor 2B (Homo sapiens, UniProt P41595); assay: Binding affinity to 5HT2b (unknown origin)
Vasopressin V1a receptor = Vasopressin V1a receptor (Homo sapiens, UniProt P37288); assay: Binding affinity to vasopressin 1A receptor (unknown origin)
Chain of Vasopressin V1a receptor (P37288 whole entry): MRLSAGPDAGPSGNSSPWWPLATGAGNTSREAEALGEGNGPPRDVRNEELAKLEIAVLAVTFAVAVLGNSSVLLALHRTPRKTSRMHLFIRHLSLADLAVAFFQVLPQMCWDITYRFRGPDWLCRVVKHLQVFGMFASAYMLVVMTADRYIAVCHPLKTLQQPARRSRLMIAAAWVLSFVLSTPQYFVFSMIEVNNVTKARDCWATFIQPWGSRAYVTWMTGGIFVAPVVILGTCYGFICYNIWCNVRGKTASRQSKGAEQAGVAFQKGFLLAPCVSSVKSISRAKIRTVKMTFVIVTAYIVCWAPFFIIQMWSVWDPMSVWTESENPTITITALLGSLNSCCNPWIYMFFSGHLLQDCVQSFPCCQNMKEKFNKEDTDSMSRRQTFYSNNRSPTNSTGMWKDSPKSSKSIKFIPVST

Chain of 5-hydroxytryptamine receptor 2B (P41595 whole entry): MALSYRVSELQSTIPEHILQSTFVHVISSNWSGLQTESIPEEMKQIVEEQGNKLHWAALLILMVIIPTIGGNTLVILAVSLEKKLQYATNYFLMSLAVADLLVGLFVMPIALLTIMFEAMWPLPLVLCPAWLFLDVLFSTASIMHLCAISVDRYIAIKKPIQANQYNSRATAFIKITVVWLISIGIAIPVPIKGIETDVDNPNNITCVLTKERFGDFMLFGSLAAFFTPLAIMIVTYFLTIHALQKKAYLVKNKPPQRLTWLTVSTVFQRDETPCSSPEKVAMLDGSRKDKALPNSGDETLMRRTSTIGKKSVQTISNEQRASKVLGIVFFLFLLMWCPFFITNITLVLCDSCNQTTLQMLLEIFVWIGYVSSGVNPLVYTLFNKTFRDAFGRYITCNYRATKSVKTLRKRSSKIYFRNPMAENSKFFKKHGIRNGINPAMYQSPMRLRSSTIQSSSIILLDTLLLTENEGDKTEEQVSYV

Ki [1] [µM] | Ki (Vasopressin V1a receptor) [µM] | Compound
0.77 | – | CC(C)[C@@H]1NC(=O)[C@H](Cc2ccoc2)N(C)C(=O)[C@H](Cc2ccoc2)NC(=O)[C@H](Cc2ccoc2)N(C)C1=O
– | 7.04 | CC(C)C[C@@H]1NC(=O)[C@H](Cc2ccoc2)N(C)C(=O)[C@H](C(C)C)NC(=O)[C@H](Cc2ccoc2)N(C)C1=O
